{"source": "patent US8106155B2", "about": "“Test kit for determining process for determining antibiotics containing a beta-lactam ring in a biological fluid” (Neogen Corporation, priority 1998, dated 2012)", "key": {"[1]": {"biological_target": "T1, BlaR-CTD receptor in the form of a fusion protein with alkaline phosphatase or peroxidase (Bacillus licheniformis, UniProt P12287)", "T1 construct": "uses the BlaR-CTD receptor in the form of a fusion protein with alkaline phosphatase or peroxidase", "T1 sequence (P12287 354-601)": "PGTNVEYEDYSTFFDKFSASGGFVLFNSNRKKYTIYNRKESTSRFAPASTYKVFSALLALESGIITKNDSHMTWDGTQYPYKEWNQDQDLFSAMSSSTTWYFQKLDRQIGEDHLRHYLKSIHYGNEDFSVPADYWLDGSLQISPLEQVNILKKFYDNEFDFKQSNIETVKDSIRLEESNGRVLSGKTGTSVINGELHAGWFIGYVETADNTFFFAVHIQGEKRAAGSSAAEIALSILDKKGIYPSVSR", "assay": "Example 4: BlaR-CTD fusion protein with alkaline phosphatase or peroxidase, coated tube, milk", "assay_type": "binding", "conditions": "absorbance at 405 nm, 47° C.", "experimental": "The test described in this example uses the BlaR-CTD receptor in the form of a fusion protein with alkaline phosphatase or peroxidase, and uses a support in the form of a coated tube.\nIn this example, polystyrene tubes with high protein absorption of the brand name NUNK (Maxisorp type) are used, which are treated with a reference antibiotic solution as indicated in Example 3.3.2.\n7 picomol of recognition agent are incubated in the presence of 500 μl of milk for 5 minutes at 47° C. in an Eppendorf tube. […] The milk is then incubated for 2 minutes at 47° C. After removing the milk, the tube is washed twice with 1 ml of 1 M, pH 9.8 diethanolamine buffer, 0.5 mM MgCl2. […] The absorbance of the supernatant is then measured using a spectrophotometer whose wavelength is set at 405 nm."}, "[2]": {"biological_target": "T2, BlaR-CTD receptor (Bacillus licheniformis, UniProt P12287)", "T2 construct": "uses the BlaR-CTD receptor coupled to gold beads", "T2 sequence (P12287 354-601)": "as above", "assay": "9-minute test: BlaR-CTD coupled to gold beads, membrane test device, milk", "assay_type": "binding", "conditions": "47° C.; for concentration detected in a sample of milk: test carried out in 9 minutes, positive when 1st band less intense than 2nd band; for Intensity 1st band: 9-minute test, scale 0 to 10, reference band 6", "experimental": "(§1) This example illustrates the detection in milk of antibiotics containing a β-lactam ring, which are controlled by the health authorities. The test described in this example uses the BlaR-CTD receptor coupled to gold beads which serve as labelling agents, and uses a support in the form of a test device comprising a solid support to which membranes are attached.\n6 samples of fresh milk containing 0; 4; 6; 8; 10 and 12 ppb of cephapirin, respectively, are prepared. Each of these solutions is then analyzed in the following way.\n(§2) A 200 μl aliquot sample of milk and 45.27 μl of solution prepared in Example 1.1.3 are taken and placed in a glass flask. This mixture is incubated for 7 minutes at 47° C. A test device is taken and placed vertically in the glass flask such that the first end of the test device is in contact with the mixture and such that the second end rests on the wall of the glass flask. The mixture is left to migrate on the test device, while incubating the assembly for 2 minutes at 47° C.\n(§3) An intensity value ranging from 0 to 10 is attributed to the bands detected, the value 10 being given to the most intense band and the value 0 being given to the least intense band. According to this scale, a value of 6 is assigned to the reference band. The intensity of the signal observed in the first band is inversely proportional to the amount of cephapirin present in the sample.\n(§4) In this example, when the first band has an intesity less than that of the second band, the test is considered as being positive."}, "[3]": {"biological_target": "T2, BlaR-CTD receptor", "assay": "5-minute test: BlaR-CTD coupled to gold beads, membrane test device, milk", "assay_type": "binding", "conditions": "test carried out in 5 minutes, 47° C.; positive when 1st band less intense than 2nd band", "experimental": "as §1\n6 samples of fresh milk containing 0; 2; 4; 6; 8 and 10 ppb of cloxacillin, respectively, are prepared. Each of these solutions is then analyzed in the following way.\nas §2, with “for 3” for “for 7”\nas §3, with “cloxacillin” for “cephapirin”\nas §4"}, "[4]": {"system": "protein isolated from an antibiotic-sensitive microorganism, such as Bacillus stearothermophilus", "conditions": "Example 1 of European Patent Application 593 112; cited from earlier work"}}, "data": [{"smiles": "CO/N=C(\\C(=O)N[C@@H]1C(=O)N2C(C(=O)O)=C(CSC(=O)c3ccco3)CS[C@H]12)c1csc(N)n1", "note": "[ceftiofur]", "values": [{"measurement": "concentration determined in milk", "setting": "[1]", "result": "less than 50 ppb"}, {"measurement": "concentration detected in a sample of milk", "setting": "[2]", "result": 80, "unit": "ppb"}, {"measurement": "concentration detected in a sample of milk", "setting": "[3]", "result": 100, "unit": "ppb"}, {"measurement": "concentration detected", "setting": "[4]", "result": 5, "unit": "ppb"}]}, {"smiles": "CC1(C)S[C@@H]2[C@H](NC(=O)Cc3ccccc3)C(=O)N2[C@H]1C(=O)O", "note": "[penicillin G]", "values": [{"measurement": "concentration determined in milk", "setting": "[1]", "result": "less than 5 ppb"}, {"measurement": "concentration detected in a sample of milk", "setting": "[2]", "result": 3, "unit": "ppb"}, {"measurement": "concentration detected in a sample of milk", "setting": "[3]", "result": 3, "unit": "ppb"}, {"measurement": "concentration detected", "setting": "[4]", "result": "~5", "unit": "ppb"}]}, {"smiles": "CC(=O)OCC1=C(C(=O)O)N2C(=O)[C@@H](NC(=O)CSc3ccncc3)[C@H]2SC1", "note": "[cephapirin]", "values": [{"measurement": "concentration determined in milk", "setting": "[1]", "result": "less than 20 ppb"}, {"measurement": "Intensity 1st band", "setting": "[2]; 4 ppb cephapirin in milk", "result": 6}, {"measurement": "Intensity 1st band", "setting": "[2]; 6 ppb cephapirin in milk", "result": 5}, {"measurement": "Intensity 1st band", "setting": "[2]; 8 ppb cephapirin in milk", "result": 4}, {"measurement": "Intensity 1st band", "setting": "[2]; 10 ppb cephapirin in milk", "result": 3}, {"measurement": "Intensity 1st band", "setting": "[2]; 12 ppb cephapirin in milk", "result": 3}, {"measurement": "concentration detected in a sample of milk", "setting": "[2]", "result": 6, "unit": "ppb"}, {"measurement": "concentration detected in a sample of milk", "setting": "[3]", "result": 16, "unit": "ppb"}, {"measurement": "concentration detected", "setting": "[4]", "result": 5, "unit": "ppb"}]}]}
